Measurements from patent US20050148069A1, “IGF-1 instructs multipotent adult CNS neural stem cells to an oligodendroglial lineage” (priority 2003, published 2005).

Tests used:
[1] = system: adult hippocampus-derived neural progenitor cells; assay: cell death by live staining with propidium iodide and Hoechst 33342; assay type: cell-based, rat; conditions: 500 ng/ml IGF-I
Description: We first directly measured the effect of IGF-I on cell survival. We asked whether a selective decrease in the death of oligodendrocytes (and/or oligodendrocyte progenitors) could explain the net increase in number of oligodendrocytes (defined by the expression of RIP, a marker of both immature and mature oligodendrocytes). […] To quantify cell death of the progeny of neural progenitor cells, living cultures were stained with propidium iodide (1 μg/ml), which stains dead cells, and Hoechst 33342 (1 μg/ml), which stains live and dead cells. Staining of live, rather than fixed, cultures was used to avoid underestimating cell death due to possible detachment of dying and/or dead cells from culture substrates. […]
Cells were fixed with 4% paraformaldehyde, followed by immunocytochemical staining as described (Palmer et al., 1999). […] Quantification of cell phenotypes was with StereoInvestigator (MicroBrightfield Inc.); for each marker, 500-1000 cells were sampled systematically from standardized fields at 40×magnification. For quantification of live/dead cells, images were taken of cultures live-stained with propidum iodide (1 μg/ml; Molecular Probes) and Hoescht 33342 (1 μg/ml; Sigma) at 10×magnification, and cells were counted using Image-Pro (Media Cybernetics). […]

[2] = system: Smad6; assay: quantitative real time PCR, Smad6 expression; assay type: cell-based, rat; conditions: 500 ng/ml IGF-I, up to 48 hours, normalized to GAPDH
Text: If IGF-I induction of oligodendrocyte differentiation involves the inhibition of BMP signaling, a change in the expression of BMP antagonists after IGF-I treatment might be observed. In addition to extracellular antagonists of BMP signaling, such as Noggin, intracellular proteins that can interfere with downstream BMP receptor signaling, called inhibitory Smads (Smad6, 7), have also been identified (Christian and Nakayama, 1999). Therefore, we performed Q-PCR analyses of cultures treated with IGF-I after various time points (up to 48 hours) and examined the relative fold change (normalized to an internal control; see Methods) of Noggin, Smad6, 7 (FIG. 6, A-C). Expression of Noggin, Smad6, 7 increased by at least 6-, 5-, and 2-fold, respectively, after IGF-I treatment (p<0.05, t-test). There may be an unexplained downregulation of Smad6 at the 48-h time point.
Total RNA was isolated from cell cultures using RNeasy columns (Qiagen). For real-time quantitative PCR, reactions were carried out essentially as described (Zhao et al., 2001). The relative amount of the tested message was normalized to the level of the internal control message, GAPDH. […] Primer sequences are available upon request.

[3] = system: oligodendrocytes in the hilus of the adult rat hippocampus; assay: IGF-I overexpression in vivo in the hippocampus (hilus), immunohistochemistry; conditions: 4 weeks after injection
Description: cDNA encoding the human IGF-I gene was cloned into a recombinant AAV vector and the virus was prepared as previously described (Kaspar et al., 2002). Expression of IGF-I and {overscore (β)}gal (control AAV) was first confirmed in human embryonic kidney (HEK-293) cells by RT-PCR and Western analysis and subsequently in the hippocampus by RT-PCR analysis (unpublished data). Recombinant AAV-IGF-I (rAAV-IGF-I) or AAV-{overscore (β)}gal (rAAV-{overscore (β)}gal) was stereotaxically injected into the hippocampus (anteroposterior axis, −4.0 mm; mediolateral axis, +2.0 mm; dorsoventral axis, −3.0 from skull, with nose bar at 3.3 mm up) of anesthetized female Fischer-344 rats (150-175 g; n=6). […]
All comparative analyses were focused on the hilus of the injected side on matched hippocampal sections. For RIP or MBP staining, immunofluorescence average pixel intensity of equivalent sized fields (4 from each animal) in control and experimental groups was determined from digital images using Adobe Photoshop. To quantify the number of oligodendrocytes, sections were immunostained with GST-π. Only immunolabeled cells with a clear DAPI-positive nucleus were scored. For quantification of GST-π cells, area counts of the hilus within the dentate gyrus of the hippocampus were performed. […] The results are expressed as the average number of cells per section.

Substance: IGF-I: human recombinant IGF-I (R&D Systems), growth factor polypeptide
- percentage of dead/dying cells ([1]; every 12 hours up to 48 h): relatively small percentage of dead/dying cells
- change in the percentage of cells that died between time points ([1]; one-way ANOVA): no significant change
- relative fold change of Smad6 expression [2]: ≥ 5 fold
- GFAP staining vs control animals [3]: no observable difference in GFAP staining
